The source of these data is patent US20260098053A1, “COMPOSITIONS AND METHODS FOR TREATING CNS DISORDERS” (SAGE THERAPEUTICS, INC., priority 2019, published 2026).

The IC50 is the concentration needed to halve the response being measured.

The first assay deals with [35S]-TBPS binding, rat brain cortical membranes. As to the kind of experiment: Steroid inhibition of [35S]-TBPS binding. Particulars: Table 4, 3 nM [35S]-TBPS, in the presence of 5 mM GABA, read-out: TBPS IC50. The method, then: [35S]-t-Butylbicyclophosphorothionate (TBPS) binding assays using rat brain cortical membranes in the presence of 5 mM GABA has been described (Gee et al, J. Pharmacol. Exp. Ther. 1987, 241, 346-353; Hawkinson et al, Mol. Pharmacol. 1994, 46, 977-985; Lewin, A. H et al., Mol. Pharmacol. 1989, 35, 189-194).
Briefly, cortices are rapidly removed following decapitation of carbon dioxide-anesthetized Sprague-Dawley rats (200-250 g). The cortices are homogenized in 10 volumes of ice-cold 0.32 M sucrose using a glass/teflon homogenizer and centrifuged at 1500×g for 10 min at 4° C. The resultant supernatants are centrifuged at 10,000×g for 20 min at 4° C. to obtain the P2 pellets. The P2 pellets are resuspended in 200 mM NaCl/50 mM Na—K phosphate pH 7.4 buffer and centrifuged at 10,000×g for 10 min at 4° C. This washing procedure is repeated twice and the pellets are resuspended in 10 volumes of buffer. Aliquots ([…]) of the membrane suspensions are incubated with 3 nM [^35S]-TBPS and […] aliquots of test drug dissolved in dimethyl sulfoxide (DMSO) (final 0.5%) in the presence of 5 mM GABA. The incubation is brought to a final volume of 1.0 mL with buffer. Nonspecific binding is determined in the presence of […] and ranged from 15 to 25%. Following a 90 min incubation at room temp, the assays are terminated by filtration through glass fiber filters (Schleicher and Schuell No. 32) using a cell harvester (Brandel) and rinsed three times with ice-cold buffer. Filter bound radioactivity is measured by liquid scintillation spectrometry. Non-linear curve fitting of the overall data for each drug averaged for each concentration is done using Prism (GraphPad). […] The concentration of test compound producing 50% inhibition (IC50) of specific binding and the maximal extent of inhibition (Imax) are determined for the individual experiments with the same model used for the overall data and then the means±SEM.s of the individual experiments are calculated.
Various compounds are or can be screened to determine their potential as modulators of [^35S]-TBPS binding in vitro. These assays are or can be performed in accordance with the above
`C[C@]1(O)CC[C@@H]2CC[C@@H]3[C@H](CC[C@]4(C)[C@@H](C(=O)Cn5cc(C#N)cn5)CCC[C@@H]34)[C@@]2(C)CC1` [Example 44, 1-(2-((1S,4aS,4bR,6aS,9S,11aS,11bS,13aS)-9-hydroxy-9,11a,13a-trimethyloctadecahydro-1H-cyclohepta[a]phenanthren-1-yl)-2-oxoethyl)-1H-pyrazole-4-carbonitrile]: the 50% inhibitory concentration (IC50) is 100 to 1000 nM.

`C[C@@]1(O)CCC[C@@]2(C)[C@H](CC[C@@H]3[C@@H]2CC[C@]2(C)[C@H](C(=O)Cn4cc(C#N)cn4)CCCC[C@@H]32)C1` [Example 61, 1-(2-((1R,5aS,5bR,7aR,9R,12aS,12bS,14aS)-9-hydroxy-9,12a,14a-trimethylicosahydrodicyclohepta[a,f]naphthalen-1-yl)-2-oxoethyl)-1H-pyrazole-4-carbonitrile]: the half-inhibitory concentration (IC50) was in the range of 100 to 1000 nM. Still for that read-out and setting: next, `C[C@]1(O)CC[C@@H]2CC[C@@H]3[C@H](CC[C@]4(C)[C@H](C(=O)Cn5cc(C#N)cn5)CCC[C@@H]34)[C@@]2(C)CC1` [Example 45, 1-(2-((1R,4aS,4bR,6aS,9S,11aS,11bS,13aS)-9-hydroxy-9,11a,13a-trimethyloctadecahydro-1H-cyclohepta[a]phenanthren-1-yl)-2-oxoethyl)-1H-pyrazole-4-carbonitrile]: over 1000 nM. The same measure, in the same setting: next, `CC[C@]12CC[C@@](C)(O)CC[C@H]1CC[C@H]1[C@@H]3CC[C@H](C(=O)Cn4cc(C#N)cn4)[C@@]3(C)CC[C@@H]12` [Example 26]: 100 to 1000 nM; `C[C@]1(O)CC[C@H]2CC[C@@H]3[C@H](CC[C@]4(C)[C@H](C(=O)Cn5cc(C#N)cn5)CCC[C@@H]34)[C@H]2CC1` [Example 3]: over 1000 nM. For `COC[C@]1(O)CC[C@H]2CC[C@@H]3[C@H](CC[C@]4(C)[C@@H](C(=O)Cn5cc(C#N)cn5)CCC[C@@H]34)[C@@]2(C)CC1` [Example 55, 1-(2-((1S,4aS,4bR,6aR,9S,11aS,11bS,13aS)-9-hydroxy-9-(methoxymethyl)-11a,13a-dimethyloctadecahydro-1H-cyclohepta[a]phenanthren-1-yl)-2-oxoethyl)-1H-pyrazole-4-carbonitrile], the IC50 was 100 to 1000 nM. On the same count and under the same terms, next, `CC[C@]12CC[C@@](C)(O)C[C@H]1CC[C@H]1[C@@H]3CCC[C@H](C(=O)Cn4cc(C#N)cn4)[C@@]3(C)CC[C@@H]12` [Example 19, 1-(2-((1S,4aS,4bS,6aR,8R,10aS,10bS,12aS)-10a-ethyl-8-hydroxy-8,12a-dimethyloctadecahydrochrysen-1-yl)-2-oxoethyl)-1H-pyrazole-4-carbonitrile]: under 100 nM; `Cc1nnn(CC(=O)[C@H]2CCCC[C@H]3[C@@H]4CC[C@@H]5C[C@](C)(O)CCC[C@]5(C)[C@H]4CC[C@]23C)n1` [Example 62, 1-((1S,5aS,5bR,7aR,9R,12aS,12bS,14aS)-9-hydroxy-9,12a,14a-trimethylicosahydrodicyclohepta[a,f]naphthalen-1-yl)-2-(5-methyl-2H-tetrazol-2-yl)ethanone]: under 100 nM. Regarding `CC[C@]1(O)CC[C@H]2CC[C@@H]3[C@H](CC[C@]4(C)[C@H](C(=O)Cn5cc(C#N)cn5)CCC[C@@H]34)[C@H]2CC1` [Example 48, 1-(2-((1R,4aS,4bR,6aR,9S,11aS,11bR,13aS)-9-ethyl-9-hydroxy-13a-methyloctadecahydro-1H-cyclohepta[a]phenanthren-1-yl)-2-oxoethyl)-1H-pyrazole-4-carbonitrile], the IC50 is over 1000 nM. Still for that read-out and setting: as for `Cc1nnnn1CC(=O)[C@@H]1CCCC[C@H]2[C@@H]3CC[C@@H]4C[C@](C)(O)CCC[C@]4(C)[C@H]3CC[C@]12C` [Example 65, 1-((1R,5aS,5bR,7aR,9R,12aS,12bS,14aS)-9-hydroxy-9,12a,14a-trimethylicosahydrodicyclohepta[a,f]naphthalen-1-yl)-2-(5-methyl-1H-tetrazol-1-yl)ethanone], the figure is over 1000 nM; as for `CC[C@]12CC[C@H]3[C@@H](CC[C@@H]4C[C@](C)(O)CCC[C@@]43C)[C@@H]1CC[C@@H]2C(C)=O` [Example 29, 1-((1S,3aS,3bR,5aR,7R,10aS,10bS,12aS)-12a-ethyl-7-hydroxy-7,10a-dimethyloctadecahydrocyclohepta[a]cyclopenta[f]naphthalen-1-yl)ethanone], under 100 nM; as for `CC[C@]12CC[C@@](C)(O)C[C@H]1CC[C@H]1[C@@H]3CCCC[C@H](C(=O)Cn4cc(C#N)cn4)[C@@]3(C)CC[C@@H]12` [Example 24], under 100 nM. On to `CC[C@]1(O)CC[C@H]2CC[C@@H]3[C@H](CC[C@]4(C)[C@@H](C(=O)Cn5cc(C#N)cn5)CCC[C@@H]34)[C@H]2CC1` [Example 50], for which the half-inhibitory concentration (IC50) fell in the range of 100 to 1000 nM. Regarding `CC[C@]12CC[C@@](C)(O)C[C@H]1CC[C@H]1[C@@H]3CCCC[C@@H](C(=O)Cn4cc(C#N)cn4)[C@@]3(C)CC[C@@H]12` [Example 21], the IC50 was in the range of 100 to 1000 nM. The same measure, in the same setting: as for `C[C@@]1(O)CCC[C@H]2[C@H](CC[C@@H]3[C@@H]2CC[C@]2(C)[C@@H](C(=O)Cn4cc(C#N)cn4)CCC[C@@H]32)C1` [Example 10], the figure is under 100 nM; as for `CC[C@]12CC[C@H]3[C@@H](CC[C@@H]4C[C@](C)(O)CC[C@@H]43)[C@@H]1CCC[C@@H]2C(=O)Cn1cc(C#N)cn1` [Example 28, 1-(2-((1S,4aS,4bR,6aR,8R,10aS,10bR,12aS)-12a-ethyl-8-hydroxy-8-methyloctadecahydrochrysen-1-yl)-2-oxoethyl)-1H-pyrazole-4-carbonitrile], under 100 nM; as for `CC[C@@]1(O)CCC[C@@]2(C)[C@H](CC[C@@H]3[C@@H]2CC[C@]2(C)[C@@H](C(C)=O)CCC[C@@H]32)C1` [Example 37, 1-((1S,4aS,4bR,6aR,8R,11aS,11bS,13aS)-8-ethyl-8-hydroxy-11a,13a-dimethyloctadecahydro-1H-cyclohepta[a]phenanthren-1-yl)ethanone], 100 to 1000 nM.

The assay is the same for the next values; noted with them: Table 5, 3 nM [35S]-TBPS, in the presence of 5 mM GABA, read-out: TBPS IC50.
`Cc1nnn(CC(=O)[C@H]2CC[C@H]3[C@@H]4CC[C@H]5C[C@](C)(O)CC[C@@H]5[C@H]4CC[C@@H]32)n1` [Example 73, 1-((3R,5S,8R,9R,10S,13S,14S,17S)-3-hydroxy-3-methylhexadecahydro-1H-cyclopenta[a]phenanthren-17-yl)-2-(5-methyl-2H-tetrazol-2-yl)ethanone]: the 50% inhibitory concentration (IC50) is over 1000 nM. On the same count and under the same terms, next, `CC(=O)[C@H]1CCC[C@H]2[C@@H]3CC[C@H]4C[C@](C)(O)CC[C@@H]4[C@H]3CC[C@@H]21` [Example 79, 1-((1S,4aS,4bR,6aS,8R,10aS,10bR,12aS)-8-hydroxy-8-methyloctadecahydrochrysen-1-yl)-ethanone]: 100 to 1000 nM. Turning to `Cc1nnnn1CC(=O)[C@H]1CC[C@H]2[C@@H]3CC[C@@H]4C[C@](C)(O)CC[C@@H]4[C@H]3CC[C@@H]21` [Example 70, 1-((3R,5R,8R,9R,10S,13S,14S,17S)-3-hydroxy-3-methylhexadecahydro-1H-cyclopenta[a]phenanthren-17-yl)-2-(5-methyl-1H-tetrazol-1-yl)ethan-1-one], the half-inhibitory concentration (IC50) is under 100 nM.

For the compound `Cc1nnn(CC(=O)[C@H]2CCC[C@H]3[C@@H]4CC[C@H]5C[C@](C)(O)CC[C@@H]5[C@H]4CC[C@@H]32)n1` [Example 80, 1-((1S,4aS,4bR,6aS,8R,10aS,10bR,12aS)-8-hydroxy-8-methyloctadecahydrochrysen-1-yl)-2-(5-methyl-2H-tetrazol-2-yl)ethanone], the IC50 is under 100 nM.

Still in this assay, the particulars now being: Table 6, 3 nM [35S]-TBPS, in the presence of 5 mM GABA, read-out: IC50.
Regarding `CC[C@]12CC[C@H]3[C@@H](CC[C@@H]4C[C@](C)(O)CC[C@@]43C3CC3)[C@@H]1CC[C@@H]2C(=O)Cn1nnc(C)n1` [Example 91, 1-((3R,5R,8S,9S,10R,13S,14S,17S)-10-cyclopropyl-13-ethyl-3-hydroxy-3-methylhexadecahydro-1H-cyclopenta[a]phenanthren-17-yl)-2-(5-methyl-2H-tetrazol-2-yl)ethanone], the 50% inhibitory concentration (IC50) was under 100 nM.
